Assay [1] deals with pancreatic cancer cell line. Kind of assay: Viability of pancreatic cancer cells exposed to compounds (FIG. 3). It is filed as cell-based, Human. To be noted: 50 μM. How it is done:
(§1) Equal numbers of cells were plated and allowed to attach for 24 hours. Cells were treated with the drug or control as described. Cellular viability was measured using trypan blue exclusion and cell counting with a hemacytometer. Viability was further measured with an MTS (3-(4,5-dimethylthiazol-2-yl)-5-(3-carboxymethoxyphenyl)-2-(4-sulfophenyl)-2H-tetrazolium) assay. MTS in the presence of phenazine methosulfate (PMS), produces a formazan product that has an absorbance maximum at 490-500 nm in phosphate-buffered saline. In brief, cells were plated at 5×10^3 cells per well on 96-well culture plates and allowed to attach. Following treatment with siRNA or peptides, […] was added to each well and the absorbance at 490 nm was measured using a kinetic microplate reader (Vmax, Molecular Devices, Inc., Sunnyvale, Calif.). The MTS assay was performed at 72 hours after exposure of the cells to determine the IC50 for each of the selected compounds.
FIGS. 1-3 show the results of exposure of the indicated cancer cell lines to 50 μM of the indicated compounds of the invention.

Another assay has as its target T1, FAK FAT domain (Homo sapiens, UniProt Q05397).
T1 sequence (Q05397 914-1045 limits assumed): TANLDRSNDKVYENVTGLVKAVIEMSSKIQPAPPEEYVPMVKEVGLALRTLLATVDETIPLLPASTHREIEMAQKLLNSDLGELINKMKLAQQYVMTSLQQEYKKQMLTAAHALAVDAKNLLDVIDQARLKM
Nature of the assay: Label-free OctetRED binding assay. The text has this: We used a label-free OctetRED method for determining kinetic constants for the binding of small molecule inhibitors to the FAK FAT domain.
A label-free OctetRED method was used for determining kinetic constants for the binding of C9 or C10 to the FAK-FAT domain. Label-free analysis of the association and dissociation of a small molecule with the target protein of interest results in the determination of kinetic constants including the association rate constant (ka), dissociation rate constant (kd), and equilibrium dissociation constant (KD).

Assay [2] concerns MiaPaCa-2-luc cells. Kind of assay: Tumor growth in xenograft nude mice. Type of assay: in vivo. The procedure:
Female nude or SCID mice were purchased six weeks old and were maintained in the animal facility, and all experiments were performed in compliance with NIH animal use guidelines using IACUC protocol approved by the Roswell Park Animal Care Committee. The 1×10^6 MiaPaCa2 cells were injected into mice subcutaneously. Next day after cell injection or week later, when tumor size reached 100 mm^3, drug was introduced by IP or gavage orally daily, 5 days per week for several weeks. Tumor diameters were measured with calipers and tumor volume in mm^3 was calculated using this formula: tumor volume=(width)^2×Length/2. At the end of the experiment, tumor weight and volume were determined. Tumor samples were collected for Western blotting and for immunohistochemical analysis.
Mice received a daily dose of the indicated amount of compounds 9A, 9B or C10 either by intraperitoneal injection (IP) or by oral gavage (PO). Treatment was initiated after tumors reached a volume of approximately 100 mm^3. […] The percent reduction in tumor volume compared to the control group (“PBS-IP”) is indicated in FIG. 6B for each treatment group.

In the next assay the test system is MCF-7-VEGFR3 cells. Kind of assay: MTS cell viability assay, MCF-7-VEGFR3 cells. Type of assay: cell-based. Conditions: MTS assay at 72 hours. How it is done:
as §1
(§2) In FIGS. 15 and 16, MiaPaCa-2-luc cells (with an IC50 for C9 of 8 μM and for C10 of 20 μM) and MCF-7-VEGFR3 cells (with an IC50 for C9 of 4 μM and for C10 of 8 μM) were treated with 1, 10 or 25 μM C9 or C10 for 24 hours (the MCF-7-VEGFR3 cells serving as a positive control in this study). Western blots were performed as described above to determine the levels of total Akt, phosphorylated Akt (pAkt), total Erk, and phosphorylated Erk (pErk). […]

Assay [3] has as its system phosphorylated Akt and phosphorylated Erk. Nature of the assay: Western blot of downstream effectors of FAK (Akt, Erk). Type of assay: cell-based. To be noted: MiaPaCa-2-luc and MCF-7-VEGFR3 cells, 1, 10 or 25 μM for 24 hours. How it is done:
Western blots were performed essentially as previously described. See: Beierle E, Ma X, Trujillo A, Kurenova E, Cance W, Golubovskaya V: Inhibition of focal adhesion kinase and src increases detachment and apoptosis in human neuroblastoma cell lines. Mol Carcinog 2010, 49:224-234; Kurenova E, Xu L, Yang X, Baldwin A J, Craven R, Hanks S, Liu Z, Cance W: Focal adhesion kinase suppresses apoptosis by binding to the death domain of receptor-interacting protein. Mol Cell Biol 2004, 24:4361-4371. Briefly, cells were treated with the agent under study, then lysed on ice for 30 min in a buffer containing 50 mM Tris-HCL, (pH 7.5), 150 mM NaCl, 1% Triton-X, 0.5% NaDOC, 0.1% SDS, 5 mM EDTA, 50 mM NaF, 1 mM NaVO3, 10% glycerol, and protease inhibitors: 10 μg/mL leupeptin, 10 μg/mL PMSF and 1 μg/ML aprotinin. The lysates were cleared by centrifugation at 10 000 rpm for 30 min at 4° C. Protein concentrations were determined using a Bio-Rad kit (BioRad, Hercules, Calif.) and proteins were separated by electrophoresis on SDS-PAGE gels. Antibodies were used according to manufacturer's recommended conditions. Molecular weight markers were used to confirm the expected size of the target proteins. Immunoblots were developed with chemiluminescence Amersham ECL Western blotting detection reagents (GE Healthcare Biosciences). […]

Assay [4] relates to MiaPaCa-2-luc cells. Nature of the assay: MTS cell viability assay, MiaPaCa-2-luc cells. It is filed as cell-based. Conditions: Homo sapiens, MTS assay at 72 hours. The procedure: as §1, §2
For assay [5], the target named is T2, FAK and VEGFR3 (Flt-4) proteins (Homo sapiens, UniProt Q05397).
T2 construct: Immunoprecipitation with FAK antibody after 24 h of treatment of MiaPaCa-2 cells; endogenous in cells; host or cells: MiaPaCa-2
Kind of assay: Immunoprecipitation with FAK antibody after treatment of MiaPaCa-2 cells (FAK-VEGFR3 binding). Type of assay: cell-based. Conditions: 24 h of treatment. How it is done:
For immunoprecipitation, cells are lysed with NP40 lysis buffer, and 1000 μg of total protein is precleared with protein A/G-agarose beads (CalBiochem) at 4° C. for 1 hour and then incubated with 5 μg of antibody overnight followed by a 2 hour incubation with protein A/G-agarose beads at 4° C. Precipitates are washed thrice with cold PBS and the beads are resuspended in SDS-PAGE sample loading buffer, boiled for 5 minutes, and resolved by SDS-PAGE. Proteins are transferred to polyvinylidene difluoride membrane, probed with the appropriate antibody, and detected with chemiluminescence using Amersham ECL Western blotting detection reagents (GE Healthcare Life Sciences, Piscataway, N.J.).
The study utilized the “Octet Red” technology (ForteBio, Menlo Park, Calif.), which provides real-time monitoring for protein-small molecule interactions and binding events using BioLayer Interferometry (BLI) technology. Any change in the number of molecules bound to the biosensor tip changes the optical layer thickness. […] Since C1 is not active against this pancreatic cancer cell line, it was included as a negative control, and chloropyramine (“C4”), which has been shown previously to be active against this cell line, was used as a positive control.

In assay [6] the test system is pancreatic cancer cell line. Kind of assay: Clonogenicity (colony formation). Type of assay: cell-based, Human. Conditions: compared with chloropyramine (C4). The procedure: The 500-1000 cells were plated on 6 well plates and incubated at 37° C. for 1-2 weeks. Then cells were fixed in 25% methanol and stained with Crystal Violet and colonies were visualized and counted in two independent experiments.
In FIG. 11, results of such a clonogenicity study are shown for compounds C9 and C10 using a pancreatic cancer cell line. In this particular study, since compound C1 is not active against this particular cancer cell line (see FIG. 3), it was used as a negative control. Chloropyramine (“C4”), which has been previously shown to have some activity against this cancer cell line, was used as a positive control.

T2 sequence (Q05397 2-1052 limits assumed): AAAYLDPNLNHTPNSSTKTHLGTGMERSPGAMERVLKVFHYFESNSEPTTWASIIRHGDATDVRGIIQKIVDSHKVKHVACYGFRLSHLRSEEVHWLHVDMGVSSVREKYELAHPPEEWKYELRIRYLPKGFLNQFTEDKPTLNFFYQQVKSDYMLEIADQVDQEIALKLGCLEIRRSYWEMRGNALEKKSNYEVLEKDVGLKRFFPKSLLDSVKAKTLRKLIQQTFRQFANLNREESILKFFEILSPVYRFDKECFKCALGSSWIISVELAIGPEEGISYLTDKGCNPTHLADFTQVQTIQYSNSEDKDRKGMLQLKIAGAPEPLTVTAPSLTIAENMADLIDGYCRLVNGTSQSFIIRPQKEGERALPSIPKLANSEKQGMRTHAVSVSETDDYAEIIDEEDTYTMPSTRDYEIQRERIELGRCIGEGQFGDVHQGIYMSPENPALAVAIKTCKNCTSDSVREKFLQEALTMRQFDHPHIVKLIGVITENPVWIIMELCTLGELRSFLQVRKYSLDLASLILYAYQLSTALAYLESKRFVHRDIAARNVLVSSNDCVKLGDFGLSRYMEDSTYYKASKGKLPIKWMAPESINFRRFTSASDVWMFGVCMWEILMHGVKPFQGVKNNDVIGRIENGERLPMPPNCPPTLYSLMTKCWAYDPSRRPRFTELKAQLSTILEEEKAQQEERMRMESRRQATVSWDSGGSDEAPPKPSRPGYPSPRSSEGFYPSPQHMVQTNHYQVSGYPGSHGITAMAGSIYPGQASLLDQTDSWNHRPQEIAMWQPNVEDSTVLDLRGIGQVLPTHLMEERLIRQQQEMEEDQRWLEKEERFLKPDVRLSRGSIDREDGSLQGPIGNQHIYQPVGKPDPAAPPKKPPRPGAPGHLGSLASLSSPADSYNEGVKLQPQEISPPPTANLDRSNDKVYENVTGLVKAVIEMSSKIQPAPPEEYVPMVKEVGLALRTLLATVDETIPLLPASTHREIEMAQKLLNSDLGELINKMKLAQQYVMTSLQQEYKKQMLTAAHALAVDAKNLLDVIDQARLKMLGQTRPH

As for `CN(C)CCNc1ccccn1` [Compound C1], the “activity against pancreatic cancer cell line” value in assay [1] is given as “not active”. At FAK FAT domain, the “binding to the FAT domain of FAK” value was “does not appear to bind”.

`CN(C)CCN(Cc1ccc(Cl)cc1)c1ccc2ccccc2n1` [Compound C10]: in the assay with MiaPaCa-2-luc cells [2] (IP 20 mg/kg daily, P<0.05), the “tumor volume compared to vehicle (PBS)-treated tumors” value is reported as “Statistically significant differences”. Further, the “effectiveness by route of administration” value with MiaPaCa-2-luc cells [2] (oral vs intraperitoneal) is recorded as “very effective when administered orally”. For the same compound, in the assay with MCF-7-VEGFR3 cells, inhibition was half-maximal at 8 µM (IC50). For the same compound, in assay [3], the “phosphorylated Akt level” value is given as “strong down-regulation” and the “phosphorylated Erk level” value was “strong down-regulation”. In the assay with MiaPaCa-2-luc cells [4], this compound gave an IC50 of 20 µM. Besides, the “concentration at which binding of FAK and VEGFR3 (Flt-4) proteins was disrupted” value in assay [5] amounted to 10 µM. Moreover, the “inhibition of colony formation” value in assay [6] was “active at much lower doses than C4”.

For the origin of these results see patent US9394253B2, “Kinase protein binding inhibitors” (Roswell Park Cancer Institute, priority 2011, dated 2016).
